From patent US7985771B2, “Furanone derivatives” (Monsanto Technology LLC, priority 2002, dated 2011) come the findings set out here.

Assay [1] has as its system ELAM (E-selectin) expression in endothelial cells. Briefly: E-selectin (ELAM) cell inflammation assay. Format: cell-based. The settings on record: LPS and IL-1β stimulation, read-out: reduction of expression of ELAM, EC50. The protocol:
Endothelial-Leukocyte Adhesion Molecule (ELAM), also known as E-selectin, is expressed on the surface of endothelial cells. In this assay, lipopolysaccharide (LPS) and IL-1β are used to stimulate the expression of ELAM; test agents are tested for their abilities to reduce this expression, in accordance with studies showing that reduction of leukocyte adhesion to endothelial cell surface is associated with decreased cellular damage (e.g., Takada, M., Et al., Transplantation 64: 1520-25, 1997; Steinberg, J. B., et al., J. Heart Lung Trans. 13:306-313, 1994).
Endothelial cells may be selected from any of a number of sources and cultured according to methods known in the art; including, for example, coronary artery endothelial cells, human brain microvascular endothelial cells (HBMEC; Hess, D.C., et al., Neurosci. Left. 213(1): 37-40, 1996), or lung endothelial cells. Cells are conveniently cultured in 96-well plates. Cells are stimulated by adding a solution to each well containing 10 μg/ml LPS and 100 pg/ml IL-1β for 6 hours in the presence of test agent (specific concentrations and time may be adjusted depending on the cell type). Treatment buffer is removed and replaced with pre-warmed Fixing Solution® (100 μl/well) for 25 minutes at room temperature. Cells are then washed 3×, then incubated with Blocking Buffer (PBS+2% FBS) for 25 minutes at room temperature. Blocking Buffer containing Monoclonal E-Selectin Antibody (1:750, Sigma Catalog #S-9555) is added to each well. Plates are sealed and stored at 4° overnight. Plates are washed 4× with 160 μL Blocking Buffer per well. Second Antibody-HRP diluted 1:5000 in Blocking Buffer is then added (100 μL/well), and plates are incubated at room temperature (protected from light) for two hours. Plates are then washed 4× with Blocking Buffer before addition of 100 μL of ABTS Substrate solution at room temperature (Zymed, Catalog #00-2024). Wells are allowed to develop for 35 minutes, before measurement at 402 nm in a Fluoroskan® Reader with shake program for 10 seconds. Positive results are recorded as a decrease in ELAM concentration in tested wells, as compared to control wells.

In assay [2] the test system is IL-1beta release from a mouse microglial cell line. Briefly: Interleukin-1 beta microglial cell assay. The assay is classed as cell-based. As to conditions: LPS and IFN gamma stimulation, 24 hours, read-out: inhibition of IL-1beta induction, EC50. The protocol:
This assay measures the release of IL-1β from a mouse microglial cell line following an inflammatory challenge with LPS and interferon-gamma. The ability of test articles to inhibit microglial cell activation and IL-1beta release is determined by co-incubation of the test article with the inflammatory challenge. Cytokine release is measured using a mouse IL-1β ELISA and cell toxicity is determined using Cell Tracker Green (a fluorescent dye that measures cell viability).
Mouse microglial cells were seeded in poly-D-lysine coated 96-well plates at a density of 10,000 cells/well and allowed to attach for 24 hours. Cells were stimulated by addition of LPS (10 μg/ml) and IFN gamma (10 ng/ml) in the presence or absence of test article. The cells were then incubated for 24 hours at 37° C., after which time the media was removed and used for cytokine determination as described below.
Viability of mouse microglial cells after exposure to the test article was determined using a fluorescent viability dye, Cell Tracker Green. Cell Tracker Green was used at a working concentration of 5 μM in 1× HBSS. Cells were washed once with HBSS (200 μl/well) and 100 μl Cell Tracker Green was added to each well. Cells were then incubated at 37° C. for 30 minutes, after which time the Cell Tracker was removed and the cells were washed once with HBSS (200 μl/well). 100 μl fresh HBSS was added to each well and the plate was read on a Fluoroskan plate reader using an excitation wavelength of 485 nm and an emission wavelength of 538 nm.
1. The IL-1β capture antibody was reconstituted in 1 ml of PBS to give a final concentration of 720 μg/ml, and the working concentration was 4 μg/ml. For coating one 96-well plate (at 100 μl/well) 56 μl of the 720 μg/ml stock was diluted into 10 ml of PBS. 2. The IL-1β standards were reconstituted in 0.5 ml of Reagent Diluent (70 ng/ml). For a high standard of 1 ng/ml (2 wells at 100 μl each+enough for series dilution) 7.1 μl of the 70 ng/ml standard were diluted into 0.5 ml of Reagent Diluent 3. The IL-1β detection antibody was reconstituted in 1 ml of Reagent Diluent to give a final concentration of 18 μg/ml and the working concentration is 100 ng/ml. For one 96-well plate (at 100 μl/well) 56 μl of the 18 μg/ml stock was diluted into 10 ml of Reagent Diluent.
1. The Costar EIA Hi-binding plate was coated with capture antibody at 4 μg/ml. Each well was coated with 100 μl, and the plate was sealed and incubated overnight at room temperature.
2. Each well was aspirated and washed 3× with Wash Buffer. Each well was filled to the top, dispensed, and any remaining buffer was removed by inverting the plate and gently blotting against clean paper towels.
3. Non-specific binding sites were blocked by adding 300 μl of Blocking Buffer to each well, and after sealing incubating for at least 1 hour at room temperature.
5. 100 μl of either standard or sample were added in each well of the capture-coated and pre-blocked plate. The plate was sealed and incubated for 2 hours at room temperature, followed with washing as in step 2.
6. 100 μl of the detection antibody ([…]) were added to each well.
7. The plate was sealed and incubated at room temperature for 2 hours, followed with washing as in step 2.
8. 100 μl of the working dilution of Streptavidin-HRP was added, and the plate was sealed and incubated in the dark for 20 minutes at room temperature, followed with washing as in Step 2.
9. The fresh Substrate Solution was prepared by mixing Color Reagent A (H2O2) and Color Reagent B (Tetramethylbenzidine) in a 1:1 ratio. 100 μl of this Substrate Solution mixture was added to each well and the plate was incubated in the dark for 20 minutes at room temperature. 10. 50 μl of Stop Solution was added to each well, mixing was ensured by gently tapping. 11. Each plate was read with the Spectramax once at 450 nm. Results

For `CCOC(=O)C1(CSCc2ccco2)OC(=O)C(OC(=O)C(C)C)=C1SCc1ccco1` (centres unmarked) [3-(Furan-2-ylmethylsulfanyl)-2-(furan-2-ylmethylsulfanylmethyl)-4-isobutyryloxy-5-oxo-2,5-dihydro-furan-2-carboxylic acid ethyl ester], the EC50 in assay [1] is no more than 30 µM; in assay [2], no more than 20 µM.
In the same order, the values of `CCOC(=O)C1(CSCc2ccccc2)OC(=O)C(O)=C1SCc1ccccc1` (centres unmarked) [3-Benzylsulfanyl-2-benzylsulfanylmethyl-4-hydroxy-5-oxo-2,5-dihydro-furan-2-carboxylic acid ethyl ester] are no more than 30 µM and no more than 20 µM.
In the same order, the values of `CCOC(=O)C1(CSC2CCCCC2)OC(=O)C(O)=C1SC1CCCCC1` (centres unmarked) [3-Cyclohexylsulfanyl-2-cyclohexylsulfanylmethyl-4-hydroxy-5-oxo-2,5-dihydro-furan-2-carboxylic acid ethyl ester] are no more than 30 µM and no more than 20 µM.
`CCOC(=O)CSCC1(C(=O)OCC)OC(=O)C(OC(=O)C(C)(C)C)=C1SCC(=O)OCC` (centres unmarked) [4-(2,2-Dimethyl-propionyloxy)-3-ethoxycarbonylmethylsulfanyl-2-ethoxycarbonylmethylsulfanylmethyl-5-oxo-2,5-dihydro-furan-2-carboxylic acid ethyl ester]: the EC50 in assay [1] was no more than 30 µM; in assay [2], no more than 20 µM.
In the same order, the values of `CCOC(=O)C1(CSc2nc3ccccc3n2C)OC(=O)C(O)=C1Sc1nc2ccccc2n1C` (centres unmarked) [4-Hydroxy-3-(1-methyl-1H-benzoimidazol-2-ylsulfanyl)-2-(1-methyl-1H-benzoimidazol-2-ylsulfanylmethyl)-5-oxo-2,5-dihydro-furan-2-carboxylic acid ethyl ester] are no more than 30 µM and no more than 20 µM.
In the same order, the values of `CCOC(=O)C1(CSc2nc3cc(OC)ccc3s2)OC(=O)C(O)=C1Sc1nc2cc(OC)ccc2s1` (centres unmarked) [4-Hydroxy-3-(5-methoxy-benzothiazol-2-ylsulfanyl)-2-(5-methoxy-benzothiazol-2-ylsulfanylmethyl)-5-oxo-2,5-dihydro-furan-2-carboxylic acid ethyl ester] are no more than 30 µM and no more than 20 µM.
Take `CCOC(=O)C1(CSc2nc3ccc([N+](=O)[O-])cc3s2)OC(=O)C(O)=C1Sc1nc2ccc([N+](=O)[O-])cc2s1` (centres unmarked) [4-Hydroxy-3-(6-nitro-benzothiazol-2-ylsulfanyl)-2-(6-nitro-benzothiazol-2-ylsulfanylmethyl)-5-oxo-2,5-dihydro-furan-2-carboxylic acid ethyl ester]: the concentration giving a half-maximal response (EC50) in assay [1] is no more than 30 µM; in assay [2], no more than 20 µM.
With `CCOC(=O)C1(CSc2ccc(C=CC(=O)OC)cc2)OC(=O)C(O)=C1Sc1ccc(C=CC(=O)OC)cc1` (centres unmarked) [4-Hydroxy-3-[4-(2-methoxycarbonyl-vinyl)-phenylsulfanyl]-2-[4-(2-methoxycarbonyl-vinyl)-phenylsulfanylmethyl]-5-oxo-2,5-dihydro-furan-2-carboxylic acid ethyl ester], the EC50 in assay [1] is no more than 30 µM; in assay [2] it was no more than 20 µM.
In the same order, the values of `CCOC(=O)C1(CSc2nc(-c3ccccc3)cs2)OC(=O)C(O)=C1Sc1nc(-c2ccccc2)cs1` (centres unmarked) [4-Hydroxy-5-oxo-3-(4-phenyl-thiazol-2-ylsulfanyl)-2-(4-phenyl-thiazol-2-ylsulfanylmethyl)-2,5-dihydro-furan-2-carboxylic acid ethyl ester] are no more than 30 µM and no more than 20 µM.
In the same order, the values of `CCOC(=O)C1(CSc2nccc(C(F)(F)F)n2)OC(=O)C(O)=C1Sc1nccc(C(F)(F)F)n1` (centres unmarked) [4-Hydroxy-5-oxo-3-(4-trifluoromethyl-pyrimidin-2-ylsulfanyl)-2-(4-trifluoromethyl-pyrimidin-2-ylsulfanylmethyl)-2,5-dihydro-furan-2-carboxylic acid ethyl ester] are no more than 30 µM and no more than 20 µM.

The term EC50 denotes the concentration needed to bring the measured effect to its halfway point.
